# Test results: PMC5218480 (PLoS ONE, 2017)
# System: MV-4-11 cells
# Test: Gene expression microarray analysis (Affymetrix PrimeView) and GSEA
# Type: cell-based, human
# Design: RFU PODN (11730768_x_at) / Fold change /veh PODN (11730768_x_at) / RFU LINC00158 (11744669_a_at) / Fold change /veh LINC00158 (11744669_a_at) / RFU DUSP10 (11751237_a_at) / Fold change /veh DUSP10 (11751237_a_at) / RFU ID3 (11757404_x_at) / Fold change /veh ID3 (11757404_x_at) / RFU PLEKHG5 (11737974_s_at) / Fold change /veh PLEKHG5 (11737974_s_at) / RFU LRRC4B (11730491_at) / Fold change /veh LRRC4B (11730491_at) / RFU GIMAP4 (11747438_a_at) / Fold change /veh GIMAP4 (11747438_a_at) / RFU KRT8 (11758183_x_at) / Fold change /veh KRT8 (11758183_x_at) / RFU CNN1 (11734310_a_at) / Fold change /veh CNN1 (11734310_a_at) / RFU VPS37D (11726825_at) / Fold change /veh VPS37D (11726825_at) / RFU C10orf10 (11716522_x_at) / Fold change /veh C10orf10 (11716522_x_at) / RFU KIR2DL2 /// KIR2DL4 /// KIR2DL5A /// KIR2DL5B /// KIR2DS1 /// KIR2DS2 /// KIR2DS3 /// KIR2DS4 /// KIR3DL3 /// KIR3DL3 /// KIR3DS1 (11738374_at) / Fold change /veh KIR2DL2 /// KIR2DL4 /// KIR2DL5A /// KIR2DL5B /// KIR2DS1 /// KIR2DS2 /// KIR2DS3 /// KIR2DS4 /// KIR3DL3 /// KIR3DL3 /// KIR3DS1 (11738374_at) / RFU C1QL1 (11718748_at) / Fold change /veh C1QL1 (11718748_at) / RFU TMPRSS4 (11747572_a_at) / Fold change /veh TMPRSS4 (11747572_a_at) / RFU HAMP (11756126_x_at) / Fold change /veh HAMP (11756126_x_at) / RFU RNFT2 (11725882_a_at) / Fold change /veh RNFT2 (11725882_a_at) / RFU NR4A2 (11747474_a_at) / Fold change /veh NR4A2 (11747474_a_at) / RFU ABCC12 (11746883_a_at) / Fold change /veh ABCC12 (11746883_a_at) / RFU TMEM136 (11760407_x_at) / Fold change /veh TMEM136 (11760407_x_at) / RFU CLDN22 /// WWC2 (11732394_at) / Fold change /veh CLDN22 /// WWC2 (11732394_at) / RFU HLA-DPB1 (11760878_x_at) / Fold change /veh HLA-DPB1 (11760878_x_at) / RFU SPINT1 (11716480_a_at) / Fold change /veh SPINT1 (11716480_a_at) / RFU GAP43 (11754022_s_at) / Fold change /veh GAP43 (11754022_s_at) / RFU A4GNT (11735810_at) / Fold change /veh A4GNT (11735810_at) / RFU PRB3 (11715151_x_at) / Fold change /veh PRB3 (11715151_x_at) / RFU TUBB4B (11761932_at) / Fold change /veh TUBB4B (11761932_at) / RFU CAPN14 (11732068_a_at) / Fold change /veh CAPN14 (11732068_a_at) / RFU TMCC2 (11721928_a_at) / Fold change /veh TMCC2 (11721928_a_at) / RFU IRGQ (11745062_a_at) / Fold change /veh IRGQ (11745062_a_at) / RFU FAM174B (11720279_a_at) / Fold change /veh FAM174B (11720279_a_at) / RFU TMPRSS4 (11748680_a_at) / Fold change /veh TMPRSS4 (11748680_a_at) / RFU FAM212B (11763350_a_at) / Fold change /veh FAM212B (11763350_a_at) / RFU PLEKHG5 (11743358_a_at) / Fold change /veh PLEKHG5 (11743358_a_at) / RFU ZSCAN30 (11745921_a_at) / Fold change /veh ZSCAN30 (11745921_a_at) / RFU CMKLR1 (11741424_a_at) / Fold change /veh CMKLR1 (11741424_a_at) / RFU LOC101060620 /// MAPK8IP1 (11723275_at) / Fold change /veh LOC101060620 /// MAPK8IP1 (11723275_at) / RFU SPTSSB (11747773_x_at) / Fold change /veh SPTSSB (11747773_x_at) / RFU PRSS12 (11739890_at) / Fold change /veh PRSS12 (11739890_at) / RFU BIN1 (11741810_x_at) / Fold change /veh BIN1 (11741810_x_at) / RFU WNT11 (11732464_a_at) / Fold change /veh WNT11 (11732464_a_at) / RFU C10orf10 (11716521_a_at) / Fold change /veh C10orf10 (11716521_a_at) / RFU C5orf56 (11738089_at) / Fold change /veh C5orf56 (11738089_at) / RFU CYB561 (11721691_x_at) / Fold change /veh CYB561 (11721691_x_at) / RFU ANKRD19P (11752326_a_at) / Fold change /veh ANKRD19P (11752326_a_at) / RFU OR2T12 /// OR2T33 /// OR2T8 (11738714_s_at) / Fold change /veh OR2T12 /// OR2T33 /// OR2T8 (11738714_s_at) / RFU VCAN (11748164_a_at) / Fold change /veh VCAN (11748164_a_at) / RFU JSRP1 (11732532_at) / Fold change /veh JSRP1 (11732532_at) / RFU KRTAP10-11 (11738290_x_at) / Fold change /veh KRTAP10-11 (11738290_x_at) / RFU MYO3A (11730013_a_at) / Fold change /veh MYO3A (11730013_a_at) / RFU EBF3 (11725865_a_at) / Fold change /veh EBF3 (11725865_a_at) / RFU CAMK2N1 (11719241_x_at) / Fold change /veh CAMK2N1 (11719241_x_at) / RFU C5orf56 (11738088_a_at) / Fold change /veh C5orf56 (11738088_a_at) / RFU OLFML3 (11715873_a_at) / Fold change /veh OLFML3 (11715873_a_at) / RFU LOC100653217 /// NTM (11731650_a_at) / Fold change /veh LOC100653217 /// NTM (11731650_a_at) / RFU MAPK11 (11762145_a_at) / Fold change /veh MAPK11 (11762145_a_at) / RFU FIZ1 (11724087_x_at) / Fold change /veh FIZ1 (11724087_x_at) / RFU OASL (11726364_x_at) / Fold change /veh OASL (11726364_x_at) / RFU SOX15 (11748057_x_at) / Fold change /veh SOX15 (11748057_x_at) / RFU CD79A (11719716_a_at) / Fold change /veh CD79A (11719716_a_at) / RFU HIST1H1D (11736915_at) / Fold change /veh HIST1H1D (11736915_at) / RFU CASKIN2 (11723855_a_at) / Fold change /veh CASKIN2 (11723855_a_at) / RFU LOC730098 (11760151_x_at) / Fold change /veh LOC730098 (11760151_x_at) / RFU OR4N2 (11742367_at) / Fold change /veh OR4N2 (11742367_at) / RFU PRRT2 (11749266_a_at) / Fold change /veh PRRT2 (11749266_a_at) / RFU SNX32 (11753110_a_at) / Fold change /veh SNX32 (11753110_a_at) / RFU CDHR5 (11726645_a_at) / Fold change /veh CDHR5 (11726645_a_at) / RFU RCAN1 (11760418_a_at) / Fold change /veh RCAN1 (11760418_a_at) / RFU FAM167A (11723789_a_at) / Fold change /veh FAM167A (11723789_a_at) / RFU FAM26E (11764081_at) / Fold change /veh FAM26E (11764081_at) / RFU ISYNA1 (11749810_s_at) / Fold change /veh ISYNA1 (11749810_s_at) / RFU ACY1 (11761880_at) / Fold change /veh ACY1 (11761880_at) / RFU 11764098_at / Fold change /veh 11764098_at / RFU SAMD14 (11745864_x_at) / Fold change /veh SAMD14 (11745864_x_at) / RFU NPB (11741838_a_at) / Fold change /veh NPB (11741838_a_at) / RFU TMPRSS6 (11731388_a_at) / Fold change /veh TMPRSS6 (11731388_a_at) / RFU KRTAP10-2 (11738614_at) / Fold change /veh KRTAP10-2 (11738614_at) / RFU ARHGAP8 /// PRR5-ARHGAP8 (11727945_x_at) / Fold change /veh ARHGAP8 /// PRR5-ARHGAP8 (11727945_x_at) / RFU KRTAP5-7 /// NADSYN1 (11734609_at) / Fold change /veh KRTAP5-7 /// NADSYN1 (11734609_at) / RFU RASL12 (11751679_a_at) / Fold change /veh RASL12 (11751679_a_at) / RFU CDKN2B (11736163_a_at) / Fold change /veh CDKN2B (11736163_a_at) / RFU PRF1 (11729649_at) / Fold change /veh PRF1 (11729649_at) / RFU, ZNF638 /// ZNF638-IT1 / Fold change vs veh, ZNF638 /// ZNF638-IT1 / RFU, PANK3 / Fold change vs veh, PANK3 / RFU, SH3YL1 / Fold change vs veh, SH3YL1 / RFU, ZEB2 / Fold change vs veh, ZEB2 / RFU, NRIP1 / Fold change vs veh, NRIP1 / RFU, PTTG1IP / Fold change vs veh, PTTG1IP / RFU, CAPN2 / Fold change vs veh, CAPN2 / RFU, MED14 / Fold change vs veh, MED14 / RFU, SNORA58 / Fold change vs veh, SNORA58 / RFU, C1orf63 / Fold change vs veh, C1orf63 / RFU, LRRFIP1 / Fold change vs veh, LRRFIP1 / RFU, NDUFAF7 / Fold change vs veh, NDUFAF7 / RFU, SLC12A2 / Fold change vs veh, SLC12A2 / RFU, IBTK / Fold change vs veh, IBTK / RFU, ESF1 / Fold change vs veh, ESF1 / Fold change vs veh, TMEM50B / RFU, TAOK1 / Fold change vs veh, TAOK1 / RFU, ACBD3 / Fold change vs veh, ACBD3 / RFU, TMA16 / Fold change vs veh, TMA16 / RFU, RWDD3 / Fold change vs veh, RWDD3 / RFU, BCAT1 / Fold change vs veh, BCAT1 / RFU, EDEM3 / Fold change vs veh, EDEM3 / RFU, TMEM33 / Fold change vs veh, TMEM33 / RFU, WDR75 / Fold change vs veh, WDR75 / RFU, AHCTF1 / Fold change vs veh, AHCTF1 / RFU, TFRC / Fold change vs veh, TFRC / RFU, ZDHHC17 / Fold change vs veh, ZDHHC17 / RFU, NOM1 / Fold change vs veh, NOM1 / RFU, ARL8B / Fold change vs veh, ARL8B / RFU, ZBTB11 / Fold change vs veh, ZBTB11 / RFU, TAMM41 / Fold change vs veh, TAMM41 / RFU, KIAA1704 /// LOC100996395 / Fold change vs veh, KIAA1704 /// LOC100996395 / RFU, ING1 / Fold change vs veh, ING1 / RFU, TRMT61B / Fold change vs veh, TRMT61B / RFU, FUBP3 / Fold change vs veh, FUBP3 / RFU, TP53 / Fold change vs veh, TP53 / RFU, TNKS2 / Fold change vs veh, TNKS2 / RFU, ZFP14 / Fold change vs veh, ZFP14 / RFU, ACTR2 / Fold change vs veh, ACTR2 / RFU, PPP3R1 / Fold change vs veh, PPP3R1 / RFU, PIK3R1 / Fold change vs veh, PIK3R1 / RFU, HNRNPA1 / Fold change vs veh, HNRNPA1 / RFU, RNF170 / Fold change vs veh, RNF170 / RFU, ZNF28 / Fold change vs veh, ZNF28 / RFU, RNGTT / Fold change vs veh, RNGTT / RFU, OGT / Fold change vs veh, OGT / RFU, BRD1 / Fold change vs veh, BRD1 / RFU, MARS / Fold change vs veh, MARS / RFU, ZNF655 / Fold change vs veh, ZNF655 / RFU, FAHD1 / Fold change vs veh, FAHD1 / RFU, BDP1 / Fold change vs veh, BDP1 / RFU, LRRCC1 / Fold change vs veh, LRRCC1 / RFU, ARID1A / Fold change vs veh, ARID1A / RFU, ZNF146 / Fold change vs veh, ZNF146 / RFU, ZNF330 / Fold change vs veh, ZNF330 / RFU, GPN3 / Fold change vs veh, GPN3 / RFU, C9orf123 / Fold change vs veh, C9orf123 / RFU, N4BP2L2 / Fold change vs veh, N4BP2L2 / RFU, ARFIP1 / Fold change vs veh, ARFIP1 / RFU, FAM179B / Fold change vs veh, FAM179B / RFU, BCL10 / Fold change vs veh, BCL10 / RFU, UHRF1BP1L / Fold change vs veh, UHRF1BP1L / RFU, BET1 / Fold change vs veh, BET1 / RFU, CNOT2 / Fold change vs veh, CNOT2 / RFU, ZNF268 / Fold change vs veh, ZNF268 / Fold change vs veh, ZNF507 / RFU, DGCR2 / Fold change vs veh, DGCR2 / RFU, WDSUB1 / Fold change vs veh, WDSUB1 / Fold change vs veh, HSP90B1 /// MIR3652 / RFU, ADSS / Fold change vs veh, ADSS / RFU, GK / Fold change vs veh, GK / RFU, ZNF148 / Fold change vs veh, ZNF148 / RFU, TAF9 / Fold change vs veh, TAF9 / RFU, SLC1A5 / Fold change vs veh, SLC1A5 / RFU, SLMO2 / Fold change vs veh, SLMO2 / RFU, ABCC4 / Fold change vs veh, ABCC4 / RFU, LOC101060439 /// RAP1B / Fold change vs veh, LOC101060439 /// RAP1B / RFU, RFX7 / Fold change vs veh, RFX7 / RFU, GTPBP10 / Fold change vs veh, GTPBP10 / RFU, CNEP1R1 / Fold change vs veh, CNEP1R1 / RFU, BIVM-ERCC5 /// ERCC5 / Fold change vs veh, BIVM-ERCC5 /// ERCC5 / RFU, ILF3 / Fold change vs veh, ILF3 / RFU 11762660_at / Fold change /veh 11762660_at / RFU VCAN (11757783_s_at) / Fold change /veh VCAN (11757783_s_at) / RFU DDX43 (11728927_at) / Fold change /veh DDX43 (11728927_at) / RFU KRT8 (11758188_x_at) / Fold change /veh KRT8 (11758188_x_at) / RFU NKD1 (11759106_at) / Fold change /veh NKD1 (11759106_at) / RFU SRD5A1 (11742802_a_at) / Fold change /veh SRD5A1 (11742802_a_at) / RFU TPSAB1 /// TPSB2 (11721975_s_at) / Fold change /veh TPSAB1 /// TPSB2 (11721975_s_at) / RFU GSTM3 (11746129_a_at) / Fold change /veh GSTM3 (11746129_a_at) / RFU IL23R (11737362_x_at) / Fold change /veh IL23R (11737362_x_at) / RFU TMEM51 (11727254_a_at) / Fold change /veh TMEM51 (11727254_a_at) / RFU PIWIL2 (11732686_x_at) / Fold change /veh PIWIL2 (11732686_x_at) / RFU ORM1 (11744905_x_at) / Fold change /veh ORM1 (11744905_x_at) / RFU CCDC152 (11743942_at) / Fold change /veh CCDC152 (11743942_at) / RFU ECM1 (11717891_a_at) / Fold change /veh ECM1 (11717891_a_at) / RFU IL23R (11748794_a_at) / Fold change /veh IL23R (11748794_a_at) / RFU TNFAIP8L3 (11732012_x_at) / Fold change /veh TNFAIP8L3 (11732012_x_at) / RFU MBOAT4 (11741988_at) / Fold change /veh MBOAT4 (11741988_at) / RFU 11764193_at / Fold change /veh 11764193_at / RFU TMEM53 (11763286_at) / Fold change /veh TMEM53 (11763286_at) / RFU MAGEB2 (11727129_at) / Fold change /veh MAGEB2 (11727129_at) / RFU TMEM200A (11744735_a_at) / Fold change /veh TMEM200A (11744735_a_at) / RFU CCDC152 (11751479_a_at) / Fold change /veh CCDC152 (11751479_a_at) / RFU FAM211A (11726209_a_at) / Fold change /veh FAM211A (11726209_a_at) / RFU RGS16 (11746705_a_at) / Fold change /veh RGS16 (11746705_a_at) / RFU VCAN (11755009_s_at) / Fold change /veh VCAN (11755009_s_at) / RFU RHOB (11743442_s_at) / Fold change /veh RHOB (11743442_s_at) / RFU RGS16 (11720943_a_at) / Fold change /veh RGS16 (11720943_a_at) / RFU RGS16 (11720944_at) / Fold change /veh RGS16 (11720944_at) / RFU, VPS4B / Fold change vs veh, VPS4B / RFU, CREB1 / Fold change vs veh, CREB1 / RFU, DNAJC13 / Fold change vs veh, DNAJC13 / RFU, GNAQ / Fold change vs veh, GNAQ / RFU, CDK5R1 / Fold change vs veh, CDK5R1 / RFU, ZRANB3 / Fold change vs veh, ZRANB3 / RFU, CUL4A / Fold change vs veh, CUL4A / RFU, CCNY / Fold change vs veh, CCNY / RFU, UFL1 / Fold change vs veh, UFL1 / RFU, COG3 / Fold change vs veh, COG3 / RFU, DIAPH2 / Fold change vs veh, DIAPH2 / RFU, SKA2 / Fold change vs veh, SKA2 / RFU, AFF3 / Fold change vs veh, AFF3 / RFU, LMF1 / Fold change vs veh, LMF1 / RFU, IPO11 / Fold change vs veh, IPO11 / RFU, DFFB / Fold change vs veh, DFFB / RFU, FOXP1 / Fold change vs veh, FOXP1 / RFU, CARD8 / Fold change vs veh, CARD8 / RFU, STRN3 / Fold change vs veh, STRN3 / RFU, ADK / Fold change vs veh, ADK / RFU, RASSF2 / Fold change vs veh, RASSF2 / RFU, WIPF1 / Fold change vs veh, WIPF1 / RFU, LARP1B / Fold change vs veh, LARP1B / RFU, RASA1 / Fold change vs veh, RASA1 / RFU, RB1 / Fold change vs veh, RB1 / RFU, PPFIA1 / Fold change vs veh, PPFIA1 / RFU, MAT2A / Fold change vs veh, MAT2A / RFU, CCT5 / Fold change vs veh, CCT5 / RFU, WDR92 / Fold change vs veh, WDR92 / RFU, CUX1 / Fold change vs veh, CUX1 / RFU, TTC7A / Fold change vs veh, TTC7A / RFU, TMEM135 / Fold change vs veh, TMEM135 / RFU, DEPTOR / Fold change vs veh, DEPTOR / RFU, CPM / Fold change vs veh, CPM / RFU, DNAJB6 / Fold change vs veh, DNAJB6 / RFU, CACNA2D3 / Fold change vs veh, CACNA2D3 / RFU, DTX4 / Fold change vs veh, DTX4 / RFU, TFCP2 / Fold change vs veh, TFCP2 / RFU, GMCL1 /// GMCL1P1 / Fold change vs veh, GMCL1 /// GMCL1P1 / RFU, AEBP2 / Fold change vs veh, AEBP2 / RFU, SNHG1 /// SNORD22 /// SNORD25 /// SNORD26 /// SNORD27 /// SNORD28 /// SNORD29 /// SNORD31 / Fold change vs veh, SNHG1 /// SNORD22 /// SNORD25 /// SNORD26 /// SNORD27 /// SNORD28 /// SNORD29 /// SNORD31 / Fold change (Aza/veh), C12orf56 (ProbeSet 11735607_a_at) / Fold change (ACY-1035/veh), C12orf56 (ProbeSet 11735607_a_at) / Fold change (Aza/veh), FGFR1OP (ProbeSet 11751329_s_at) / Fold change (ACY-1035/veh), FGFR1OP (ProbeSet 11751329_s_at) / Fold change (Aza/veh), VPS36 (ProbeSet 11739960_a_at) / Fold change (ACY-1035/veh), VPS36 (ProbeSet 11739960_a_at) / RFU SYPL1 (11715823_x_at) / Fold change /veh SYPL1 (11715823_x_at) / RFU IGFBP7 (11715501_s_at) / Fold change /veh IGFBP7 (11715501_s_at) / RFU REEP3 (11722064_at) / Fold change /veh REEP3 (11722064_at) / RFU IGLL1 (11728026_x_at) / Fold change /veh IGLL1 (11728026_x_at): dose or concentration left out as unconfirmed
# Conditions: ProbeSet 11716931_at; LIST B
smiles,measurement,value
Nc1ccc(-c2cccs2)cc1NC(=O)c1ccc2c(c1)cc(C1CC1)n2CCN1CCOCC1 [ACY-1035],"RFU, DGCR2",215.86 RFU
